The results in this text go back to BindingDB's records for doi:10.7270/Q2ZC817P (The Scripps Research Institute Molecular Screening Center, 2007).

pEC50: −log10 of the molar value.

The target in one test is Sphingosine 1-phosphate receptor 1 (Homo sapiens, UniProt P21453). Put plainly: potentiators of S1P1 agonist response, dose response, cell-based, potentiator mode, 60K MLSMR set (AID 466).
Sequence of Sphingosine 1-phosphate receptor 1 (P21453 whole entry): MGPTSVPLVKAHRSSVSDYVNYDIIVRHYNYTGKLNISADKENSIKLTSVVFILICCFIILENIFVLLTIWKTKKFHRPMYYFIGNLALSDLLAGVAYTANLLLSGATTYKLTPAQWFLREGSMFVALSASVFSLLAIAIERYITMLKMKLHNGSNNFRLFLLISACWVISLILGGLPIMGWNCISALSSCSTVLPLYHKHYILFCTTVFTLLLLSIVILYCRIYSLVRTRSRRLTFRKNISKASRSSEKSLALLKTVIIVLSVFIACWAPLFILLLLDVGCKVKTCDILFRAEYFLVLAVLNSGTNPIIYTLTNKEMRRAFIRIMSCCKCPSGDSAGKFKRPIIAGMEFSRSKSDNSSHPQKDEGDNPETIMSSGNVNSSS
Settings: not given
As usually defined, the pEC50 is the negative decadic logarithm of the EC50, by convention in mol/L. On to `O=S(=O)(CCSc1ccccn1)c1nc2ccccc2s1` [2-(2-pyridin-2-ylsulfanylethylsulfonyl)-1,3-benzothiazole], for which the pEC50 is 5.01. On to `CCN=c1scc(-c2ccc3c(c2)NC(=O)CO3)n1N=C1CCCC1` [MLS000054638], for which the pEC50 is 5.15. On the same count and under the same terms, the same measure for `CCCCOc1ncnc2c1[nH]c1ccc(F)cc12` [4-butoxy-8-fluoranyl-5H-pyrimido[5,4-b]indole]: 5.51. For the molecule `c1ccc2c(c1)oc1c(N3CCN(Cc4ccc5c(c4)OCO5)CC3)ncnc12`, the pEC50 was 5.18. As for `Clc1ccc(OCc2nnc(SCc3nc4ccccc4[nH]3)n2Cc2ccco2)cc1` [2-[[[5-[(4-chlorophenoxy)methyl]-4-(2-furanylmethyl)-1,2,4-triazol-3-yl]thio]methyl]-1H-benzimidazole], the pEC50 was 5.03.

For the molecule `CCOC(=O)c1cnc(-n2nc(C)cc2C)nc1NC1CCCCC1` [4-(cyclohexylamino)-2-(3,5-dimethyl-1-pyrazolyl)-5-pyrimidinecarboxylic acid ethyl ester], the pEC50 was 5.23. Same read-out and setting: the same measure for `Cc1cc(C=Nn2cnnc2)c(C)n1-c1ccc(OCc2ccc(F)cc2)cc1` [MLS000112167]: 6.30; for `CCCCOC(=O)c1[nH]c2c(c1C)C(=O)CC(c1cc(OC)c(OC)c(OC)c1)C2` (stereo not given): 5.30; for `O=S(=O)(NCc1ccncc1)c1ccc(Br)s1` [5-bromanyl-N-(pyridin-4-ylmethyl)thiophene-2-sulfonamide]: 5.66.

For the molecule `c1ccc(-c2ccc(-c3nc(-c4ccncc4)no3)cc2)cc1` [5-(4-phenylphenyl)-3-(4-pyridyl)-1,2,4-oxadiazole], the pEC50 is 5.08. In the case of `CC1CCCC(C)N1C(=O)CN1CCN(c2nc(-c3ccc(F)cc3)cs2)CC1` (stereo not given) [1-(2,6-Dimethyl-piperidin-1-yl)-2-{4-[4-(4-fluoro-phenyl)-thiazol-2-yl]-piperazin-1-yl}-ethanone], the pEC50 was < 5.00. The same measure, in the same setting: with `c1ccc(CN2CCN(c3ncnc4c3[nH]c3ccccc34)CC2)cc1` [MLS000078384] the figure was 5.40; with `CCOC(=O)CN1C(=O)C(C)(C)Oc2ccc(C(=O)Nc3ccccc3OC)cc21` [2-[3-keto-6-[(2-methoxyphenyl)carbamoyl]-2,2-dimethyl-1,4-benzoxazin-4-yl]acetic acid ethyl ester], 5.51.

Take `Cc1cccc(OCCCCc2c(C)n[nH]c2C)c1C` [SMR000103133]: the pEC50 was 5.31.

As to `CC(C)(C)C1CCC2(CC1)C(C#N)=C(SCC(=O)Nc1ccccc1)NC(=O)C2C#N` (stereo not given) [2-[(9-tert-butyl-1,5-dicyano-2-oxidanylidene-3-azaspiro[5.5]undec-4-en-4-yl)sulfanyl]-N-phenyl-ethanamide], the negative-log EC50 (pEC50) was 5.33.

With `CCOC(=O)N1CCN(C(=O)C2CCN(c3ncnc4c3sc3cccc(F)c34)CC2)CC1` [4-[1-(9-fluorobenzothiopheno[3,2-d]pyrimidin-4-yl)isonipecotoyl]piperazine-1-carboxylic acid ethyl ester], the pEC50 was 5.18.

For the molecule `O=C(Nc1ccc(N2CCOCC2)c(Cl)c1)c1cccc(F)c1` [MLS000066209], the pEC50 was 6.03. The same measure, in the same setting: the same measure for `CN1/C(=C/C(=O)c2nc(S(C)(=O)=O)ncc2Cl)C(C)(C)c2ccccc21`: 5.04. The same measure, in the same setting: the same measure for `CC(C)(CC(=O)N1CCN(c2ccc(Cl)cc2)CC1)CC1=NS(=O)(=O)c2ccccc2N1` [1-[4-(4-chlorophenyl)-1-piperazinyl]-4-(1,1-dioxo-4H-1,2,4-benzothiadiazin-3-yl)-3,3-dimethyl-1-butanone]: 5.00.

With `OC1(c2cccc(C(F)(F)F)c2)CCN(c2ncnc3c2[nH]c2ccc(F)cc23)CC1` [1-(8-fluoranyl-5H-pyrimido[5,4-b]indol-4-yl)-4-[3-(trifluoromethyl)phenyl]piperidin-4-ol], the pEC50 is 5.36. Still for that read-out and setting: with `CCOc1ccc(-c2noc(-c3cccnc3)n2)cc1OC` [3-(4-ethoxy-3-methoxy-phenyl)-5-(3-pyridyl)-1,2,4-oxadiazole] the figure was 6.11; with `COc1ccccc1-c1nc(-c2cccc(C)c2)no1` [5-(2-methoxyphenyl)-3-(3-methylphenyl)-1,2,4-oxadiazole], 6.00. Still for that read-out and setting: the same measure for `CCOc1ccc(C2CC(c3cccc(OC)c3OC)n3nnnc3N2)cc1Cl` (stereo not given) [5-(3-chloranyl-4-ethoxy-phenyl)-7-(2,3-dimethoxyphenyl)-1,5,6,7-tetrahydro-[1,2,3,4]tetrazolo[1,5-a]pyrimidine]: 4.16. Still for that read-out and setting: with `COc1ccc(-n2nnnc2S(=O)(=O)CC(=O)N2CCCCC2)cc1` [2-[1-(4-methoxyphenyl)tetrazol-5-yl]sulfonyl-1-piperidin-1-ylethanone] the figure was 5.01. As to `Cc1cc(C=c2sc3nc4ccccc4n3c2=O)c(C)n1-c1ccccn1` [2-[(2,5-dimethyl-1-pyridin-2-yl-pyrrol-3-yl)methylidene]-[1,3]thiazolo[3,2-a]benzimidazol-1-one], the pEC50 was 6.95. On to `O=C(c1cc(-c2ccco2)on1)N1CCN(C(c2ccccc2)c2ccccc2)CC1` [(4-benzhydrylpiperazin-1-yl)-[5-(furan-2-yl)-1,2-oxazol-3-yl]methanone], for which the pEC50 was 5.24. The same measure, in the same setting: with `Cc1ccc2c(c1)[nH]c1c(N3CCN(Cc4ccccc4)CC3)ncnc12` [SMR000044826] the figure was 5.44; with `O=C(CSC1=NCCS1)Nc1ccnc2ccccc12` [2-(4,5-dihydro-1,3-thiazol-2-ylsulfanyl)-N-quinolin-4-yl-ethanamide], 5.59; with `O=C(CSc1nc2ccccc2o1)Nc1ccc(N2CCOCC2)c(Cl)c1` [2-(1,3-benzoxazol-2-ylsulfanyl)-N-(3-chloranyl-4-morpholin-4-yl-phenyl)ethanamide], 5.90.

In the case of `CC(C)OCCCNc1ncnc2c1[nH]c1ccc(F)cc12`, the pEC50 was 5.26. The same measure, in the same setting: with `N#Cc1ccc(NC(=O)Nc2ccc(Cl)cc2)cc1` [1-(4-chlorophenyl)-3-(4-cyanophenyl)urea] the figure was 5.10; with `C=CS(=O)(=O)c1ccc(Oc2ccc(S(=O)(=O)C=C)cc2)cc1` [1-ethenylsulfonyl-4-(4-ethenylsulfonylphenoxy)benzene], 5.48. The same measure, in the same setting: the same measure for `Cc1cc(C)n2nc(SCC(=O)c3cc(C)n(-c4cc(C)on4)c3C)nc2n1` [1-[2,5-dimethyl-1-(5-methyl-1,2-oxazol-3-yl)pyrrol-3-yl]-2-[(5,7-dimethyl-[1,2,4]triazolo[1,5-a]pyrimidin-2-yl)sulfanyl]ethanone]: 5.25. As to `COc1ccc(NC(=O)c2cc(-c3cccs3)on2)cc1OC` [MLS000087261], the pEC50 was 5.28. With `O=C(Nc1cccc(C(F)(F)F)c1)C1CCCN1S(=O)(=O)c1cccc2cccnc12` (stereo not given) [1-(8-quinolinylsulfonyl)-N-[3-(trifluoromethyl)phenyl]-2-pyrrolidinecarboxamide], the pEC50 was 5.27.

Turning to `Cc1cccc(N2CCN(C(=O)CSCc3c(C)noc3C)CC2)c1C` [2-[(3,5-dimethyl-1,2-oxazol-4-yl)methylsulfanyl]-1-[4-(2,3-dimethylphenyl)piperazin-1-yl]ethanone], the pEC50 was 5.36. Still for that read-out and setting: with `CCOC(=O)Nc1ccc2c(c1)N(C(=O)CCN(C)C)c1ccccc1S2` [MLS000038082] the figure was 4.31; with `CCCCOc1ncnc2c1[nH]c1ccccc12` [MLS000041483], 5.34.

Take `CC(C)COC(=O)NCCOC(=O)Nc1cccc(Cl)c1` [2-(2-methylpropoxycarbonylamino)ethyl N-(3-chlorophenyl)carbamate]: the pEC50 was 5.09. On the same count and under the same terms, with `Cc1cc(C)cc(-c2nc(-c3ccncc3)no2)c1` [5-(3,5-dimethylphenyl)-3-(4-pyridyl)-1,2,4-oxadiazole] the figure was 5.84; with `CCOC(=O)/C=C/S(=O)(=O)c1ccc(NC(C)=O)cc1`, < 5.00. On the same count and under the same terms, with `CCCC(=O)Nc1ccc2oc(-c3ccc(OC)c(Br)c3)nc2c1` [MLS000042482] the figure was 5.38.

The same test, now with this note: inactive by the depositor's call.
For `Cn1cccc1C(=O)OCc1cc(Cl)cc2c1OCOC2` [(6-chloranyl-4H-1,3-benzodioxin-8-yl)methyl 1-methylpyrrole-2-carboxylate], the pEC50 was 4.76. With `COc1ccc2c(c1)CCc1c(C(=O)NC3CCCCC3)noc1-2` [MLS000087437], the pEC50 was 4.05. Still for that read-out and setting: the same measure for `Cc1nc(C)c(C(=O)Nc2ccc(Oc3ccccc3)cc2)o1` [2,4-dimethyl-N-(4-phenoxyphenyl)-1,3-oxazole-5-carboxamide]: 4.98; for `CC(C)OCCCNc1ncnc2c1[nH]c1ccccc12` [MLS000041327]: 4.88; for `CCCOc1ccc(-c2nnc(-c3ccncc3)o2)cc1` [2-(4-propoxyphenyl)-5-(4-pyridyl)-1,3,4-oxadiazole]: 4.18. On the same count and under the same terms, the same measure for `COC(=O)c1ccc(CSc2nc3ccccc3c(=O)n2Cc2ccco2)o1` [5-[[[3-(2-furanylmethyl)-4-oxo-2-quinazolinyl]thio]methyl]-2-furancarboxylic acid methyl ester]: 4.39; for `O=c1oc2cc(Br)ccc2n1CSC1=NCCS1` [6-Bromo-3-(4,5-dihydro-thiazol-2-ylsulfanylmethyl)-3H-benzooxazol-2-one]: 4.75; for `COc1ccc(-n2c(C)c(C(C)=O)c3cc(O)ccc32)cc1` [1-[1-(4-methoxyphenyl)-2-methyl-5-oxidanyl-indol-3-yl]ethanone]: 4.62. The same measure, in the same setting: the same measure for `CCn1nc(-c2cccs2)nc2c(=O)n(C)c(=O)nc1-2` [1-ethyl-6-methyl-3-thiophen-2-yl-pyrimido[5,4-e][1,2,4]triazine-5,7-dione]: 4.50; for `Cc1ccc(C)c(-n2nnnc2Sc2nnnn2-c2ccccc2)c1` [1-(2,5-dimethylphenyl)-5-(1-phenyltetrazol-5-yl)sulfanyltetrazole]: 4.83; for `Cc1ccc(-c2nc(COC(=O)c3c(C)noc3C)cs2)cc1` [3,5-dimethyl-4-isoxazolecarboxylic acid [2-(4-methylphenyl)-4-thiazolyl]methyl ester]: 4.56. On to `COc1ccc(OCCCSc2ncccn2)cc1` [2-[3-(4-methoxyphenoxy)propylsulfanyl]pyrimidine], for which the pEC50 is 4.32. Same read-out and setting: with `Cc1cc(C(=O)N2CCN(C(c3ccccc3)c3ccccc3)CC2)no1` [(4-benzhydrylpiperazin-1-yl)-(5-methyl-1,2-oxazol-3-yl)methanone] the figure was 4.72.
